Results from ChEMBL document CHEMBL4219188, “Design, synthesis, neuroprotective, antibacterial activities and docking studies of novel thieno[2,3-d]pyrimidine-alkyne Mannich base and oxadiazole hybrids” (Bioorg Med Chem Lett, 2018).
Converted amounts (≈) assume the structure as drawn.

Key:
Bacillus subtilis [1] = experiment: Antibacterial activity against Bacillus subtilis assessed as diameter of inhibition zone measured after 24 hrs by agar well diffusion method; type: functional; note: test concentration or dose not given here
Escherichia coli [2] = experiment: Antibacterial activity against Escherichia coli assessed as diameter of inhibition zone measured after 24 hrs by agar well diffusion method; type: functional; note: test concentration or dose not given here
Bacillus subtilis [3] = experiment: Antibacterial activity against Bacillus subtilis after 24 hrs by UV-vis spectrophotometric method; type: functional
Pseudomonas aeruginosa [4] = experiment: Antibacterial activity against Pseudomonas aeruginosa assessed as diameter of inhibition zone measured after 24 hrs by agar well diffusion method; type: functional; note: test concentration or dose not given here
Escherichia coli [5] = experiment: Antibacterial activity against Escherichia coli after 24 hrs by UV-vis spectrophotometric method; type: functional
PC-12 [6] = experiment: Neuroprotective activity against H2O2-induced cytotoxicity in rat PC12 cells assessed as increase in cell viability pretreated for 24 hrs followed by H2O2 addition by MTT assay; type: functional, cell-based
[7] = Cytotoxicity against rat PC12 cells after 24 hrs by MTT assay; type: cell-based, PC-12; details: for MNTC at 24 h: read-out: MNCC
Staphylococcus aureus [8] = experiment: Antibacterial activity against Staphylococcus aureus assessed as diameter of inhibition zone measured after 24 hrs by agar well diffusion method; type: functional; note: test concentration or dose not given here
[9] = Cytotoxicity against rat PC12 cells assessed as cell viability at MNTC after 24 hrs by MTT assay relative to control; type: cell-based, PC-12; details: read-out: Activity
Pseudomonas aeruginosa [10] = experiment: Antibacterial activity against Pseudomonas aeruginosa after 24 hrs by UV-vis spectrophotometric method; type: functional
[11] = Cytotoxicity against rat PC12 cells assessed as cell viability at CC50 after 24 hrs by MTT assay relative to control; type: cell-based, PC-12; details: read-out: Activity
Staphylococcus aureus [12] = experiment: Antibacterial activity against Staphylococcus aureus after 24 hrs by UV-vis spectrophotometric method; type: functional
PC-12 [13] = experiment: Neuroprotective activity against H2O2-induced cytotoxicity in rat PC12 cells assessed as cell viability at EC50 pretreated for 24 hrs followed by H2O2 addition by MTT assay relative to control; type: functional

Compound	diameter of the inhibition zone (DIZ) (Bacillus subtilis [1])	diameter of the inhibition zone (DIZ) (Escherichia coli [2])	MIC (Bacillus subtilis [3])	diameter of the inhibition zone (DIZ) (Pseudomonas aeruginosa [4])	MIC (Escherichia coli [5])	Activity (PC-12 [6])	EC50 (PC-12 [6])	CC50 at 24 h [7]	MNTC at 24 h [7]	diameter of the inhibition zone (DIZ) (Staphylococcus aureus [8])	viability at 24 h [9]	MIC (Pseudomonas aeruginosa [10])	viability at 24 h [11]	MIC (Staphylococcus aureus [12])	Activity (PC-12 [13])
Cc1c(C(=O)OCC#CCN2CCN(c3ccc(Br)cc3C#N)CC2)sc2ncnc(N3CCCCC3)c12	16 mm	14 mm	0.0186 µg/mL (≈ 0.0313 µM)	15 mm	0.0244 µg/mL (≈ 0.0411 µM)	Dose-dependent effect	40.9 µg/mL (≈ 68.8 µM)	136 µg/mL (≈ 230 µM)	96 µg/mL	13 mm	99.1%	0.0112 µg/mL (≈ 0.0189 µM)	51.2%	0.0124 µg/mL (≈ 0.0209 µM)	76.18%
Cc1c(C(=O)OCC#CCN2CCN(c3cc(C4CC4)ccc3C#N)CC2)sc2ncnc(N3CCCCC3)c12	16 mm	17 mm	0.0581 µg/mL (≈ 0.105 µM)	17 mm	0.521 µg/mL (≈ 0.939 µM)	Dose-dependent effect	16.2 µg/mL (≈ 29.2 µM)	148 µg/mL (≈ 267 µM)	110 µg/mL	14 mm	99.6%	0.0686 µg/mL (≈ 0.124 µM)	50.1%	0.0422 µg/mL (≈ 0.0761 µM)	75.14%
COc1cccc(N2CCN(CC#CCOC(=O)c3sc4ncnc(N5CCOCC5)c4c3C)CC2)c1	16 mm	14 mm	0.012 µg/mL (≈ 0.023 µM)	14 mm	0.501 µg/mL (≈ 0.96 µM)	Dose-dependent effect	38.4 µg/mL (≈ 73.6 µM)	161 µg/mL (≈ 308 µM)	114 µg/mL	12 mm	98.1%	0.0124 µg/mL (≈ 0.0238 µM)	50%	0.0311 µg/mL (≈ 0.0596 µM)	76.78%
COc1ccc(-c2nnc(-c3sc4ncnc(N5CCOCC5)c4c3C)o2)cc1	13 mm	12 mm	0.0112 µg/mL (≈ 0.0274 µM)	16 mm	0.012 µg/mL (≈ 0.0293 µM)	Dose-dependent effect	28.2 µg/mL (≈ 68.8 µM)	140 µg/mL (≈ 342 µM)	120 µg/mL	12 mm	98.3%	0.044 µg/mL (≈ 0.107 µM)	51.9%	0.0132 µg/mL (≈ 0.0322 µM)	75.15%
Cc1c(-c2nnc(-c3ccc(Cl)cc3)o2)sc2ncnc(N3CCOCC3)c12	18 mm	13 mm	0.0144 µg/mL (≈ 0.0348 µM)	18 mm	0.0172 µg/mL (≈ 0.0416 µM)	Dose-dependent effect	28.2 µg/mL (≈ 68 µM)	168 µg/mL (≈ 406 µM)	120 µg/mL	13 mm	98.3%	0.0144 µg/mL (≈ 0.0348 µM)	51.1%	0.0136 µg/mL (≈ 0.0329 µM)	77.18%
COc1cccc(N2CCN(CC#CCOC(=O)c3sc4ncnc(N5CCCCC5)c4c3C)CC2)c1	13 mm	13 mm	0.521 µg/mL (≈ 1 µM)	14 mm	0.0384 µg/mL (≈ 0.0739 µM)	Dose-dependent effect	40.4 µg/mL (≈ 77.8 µM)	144 µg/mL (≈ 278 µM)	96 µg/mL	10 mm	98.2%	0.0842 µg/mL (≈ 0.162 µM)	51%	0.0244 µg/mL (≈ 0.047 µM)	75.08%
Cc1c(-c2nnc(-c3ccccc3)o2)sc2ncnc(N3CCOCC3)c12	12 mm	16 mm	0.0366 µg/mL (≈ 0.0965 µM)	11 mm	0.0211 µg/mL (≈ 0.0556 µM)	Dose-dependent effect	10.6 µg/mL (≈ 27.9 µM)	200 µg/mL (≈ 527 µM)	160 µg/mL	16 mm	99.5%	0.0186 µg/mL (≈ 0.049 µM)	50.4%	0.0412 µg/mL (≈ 0.109 µM)	76.18%
Cc1c(-c2nnc(-c3ccc(Cl)cc3)o2)sc2ncnc(N3CCCCC3)c12	13 mm	15 mm	0.0284 µg/mL (≈ 0.0689 µM)	14 mm	0.186 µg/mL (≈ 0.452 µM)	Dose-dependent effect	21.8 µg/mL (≈ 53 µM)	151 µg/mL (≈ 366 µM)	136 µg/mL	16 mm	98.2%	0.144 µg/mL (≈ 0.35 µM)	48.9%	0.0224 µg/mL (≈ 0.0544 µM)	75.04%
Cc1c(-c2nnc(-c3ccccc3)o2)sc2ncnc(N3CCCCC3)c12	14 mm	10 mm	0.0128 µg/mL (≈ 0.0339 µM)	13 mm	0.0132 µg/mL (≈ 0.035 µM)	Dose-dependent effect	22.1 µg/mL (≈ 58.6 µM)	146 µg/mL (≈ 387 µM)	100 µg/mL	11 mm	99.2%	0.0144 µg/mL (≈ 0.0381 µM)	54.1%	0.0125 µg/mL (≈ 0.0331 µM)	76.88%
COc1ccc(-c2nnc(-c3sc4ncnc(N5CCCCC5)c4c3C)o2)cc1	14 mm	17 mm	0.0642 µg/mL (≈ 0.158 µM)	12 mm	0.0486 µg/mL (≈ 0.119 µM)	Dose-dependent effect	20.1 µg/mL (≈ 49.4 µM)	124 µg/mL (≈ 305 µM)	100 µg/mL	10 mm	99%	0.0448 µg/mL (≈ 0.11 µM)	49.9%	0.0366 µg/mL (≈ 0.0898 µM)	75.12%
Cc1c(-c2nnc(-c3ccc([N+](=O)[O-])cc3)o2)sc2ncnc(N3CCCCC3)c12	18 mm	14 mm	0.0641 µg/mL (≈ 0.152 µM)	17 mm	0.0361 µg/mL (≈ 0.0854 µM)	Dose-dependent effect	11.9 µg/mL (≈ 28.1 µM)	145 µg/mL (≈ 343 µM)	125 µg/mL	8 mm	99%	0.0382 µg/mL (≈ 0.0904 µM)	49.9%	0.044 µg/mL (≈ 0.104 µM)	74.78%
Cc1ccc(C#N)c(N2CCN(CC#CCOC(=O)c3sc4ncnc(N5CCOCC5)c4c3C)CC2)c1	13 mm	13 mm	0.0156 µg/mL (≈ 0.0294 µM)	14 mm	0.0324 µg/mL (≈ 0.0611 µM)	Dose-dependent effect	41.3 µg/mL (≈ 77.9 µM)	146 µg/mL (≈ 275 µM)	118 µg/mL	7 mm	98.5%	0.0624 µg/mL (≈ 0.118 µM)	49.1%	0.062 µg/mL (≈ 0.117 µM)	74.98%
COc1ccc(N2CCN(CC#CCOC(=O)c3sc4ncnc(N5CCOCC5)c4c3C)CC2)cc1	12 mm	12 mm	0.062 µg/mL (≈ 0.119 µM)	14 mm	0.12 µg/mL (≈ 0.23 µM)	Dose-dependent effect	36.2 µg/mL (≈ 69.3 µM)	144 µg/mL (≈ 276 µM)	60 µg/mL	8 mm	98.1%	0.062 µg/mL (≈ 0.119 µM)	49.1%	0.062 µg/mL (≈ 0.119 µM)	74.89%
Cc1c(C(=O)OCC#CCN2CCN(c3cc(C4CC4)ccc3C#N)CC2)sc2ncnc(N3CCOCC3)c12	10 mm	12 mm	0.124 µg/mL (≈ 0.223 µM)	13 mm	0.186 µg/mL (≈ 0.334 µM)	Dose-dependent effect	12.4 µg/mL (≈ 22.3 µM)	198 µg/mL (≈ 356 µM)	150 µg/mL	13 mm	99.1%	0.0634 µg/mL (≈ 0.114 µM)	49.9%	0.312 µg/mL (≈ 0.56 µM)	75.15%
COc1ccc(N2CCN(CC#CCOC(=O)c3sc4ncnc(N5CCCCC5)c4c3C)CC2)cc1	11 mm	11 mm	0.0158 µg/mL (≈ 0.0304 µM)	10 mm	0.622 µg/mL (≈ 1.2 µM)	Dose-dependent effect	35.3 µg/mL (≈ 67.9 µM)	140 µg/mL (≈ 269 µM)	80 µg/mL	13 mm	99.4%	0.0614 µg/mL (≈ 0.118 µM)	49.4%	0.313 µg/mL (≈ 0.602 µM)	76.16%
Cc1ccc(C#N)c(N2CCN(CC#CCOC(=O)c3sc4ncnc(N5CCCCC5)c4c3C)CC2)c1	13 mm	15 mm	0.0312 µg/mL (≈ 0.059 µM)	14 mm	0.0144 µg/mL (≈ 0.0272 µM)	Dose-dependent effect	38.2 µg/mL (≈ 72.2 µM)	114 µg/mL (≈ 216 µM)	96 µg/mL	13 mm	98.2%	0.0624 µg/mL (≈ 0.118 µM)	49%	0.122 µg/mL (≈ 0.231 µM)	76.04%
GENTAMICIN	–	–	0.0386 µg/mL	–	0.0212 µg/mL	–	–	–	–	–	–	0.0242 µg/mL	–	0.0422 µg/mL	–
